Results published in patent US7344734B2, “Powder formulation” (Rijksuniversiteit Groningen, priority 2000, dated 2008).

Experiments:
Type in all cases: physicochemical
[1] = Laser diffraction analysis of the aerosol cloud from the Pharmachemie Cyclohaler (ISF inhaler); conditions: 60 l/min, 10 mg per capsule, six inhalations
Source text: (§1) The aerosol cloud from the inhaler was characterized with a laser diffraction technique (Sympatec HELOS Compact, model KA with 100 mm lens) using the Fraunhofer theory. A special inhaler adapter was used in order to adjust the required flow rate through the inhaler device. The adapter consisted of a cylindrical chamber with side tubes connecting the adapter at both sides to the housing of the laser diffraction apparatus. The inhaler device was connected to the front of the adapter, whereas the vacuum system was connected to the rear end of the adapter. Thus, a closed system was created through which the flow rate can be controlled very carefully and in which the aerosol cloud passes the laser beam for the measurement. Standard HELOS software was used: start and stop of the measurement was triggered on channel 32 with 0.1% difference in optical signal (compared with the signal during reference measurement). The mass fraction of the dose delivered by the inhaler was not analyzed during these experiments (no particle collector in line with the adapter).
Pure micronized Colistin was also inhaled with a commercial DPI (Pharmachemie Cyclohaler equals ISF Inhaler equals Novartis Foradil Inhaler, see FIG. 3), using the same (laser diffraction) procedures. Six hard gelatin capsules (no. 3) were filled with 10 mg per capsule and the capsules were sealed before use. Inhalation time was 3 seconds. […]

[2] = Laser diffraction analysis of the aerosol cloud from the test inhaler (cyclone); conditions: 60 l/min, 20 mg per inhalation, lactose fraction 63-106 μm, mean of 6 inhalations
Procedure: Inhalation experiments with the mixture were performed at 60 l/min with a test inhaler (see FIG. 1), having the same disintegration principle (cyclone) as the Colistin dry powder inhaler (prototype). […]
as §1
II The physical mixture with 83.3% Colistin was also tested with the test inhaler at 20, 30, 40 and 50 l/min. […]

[3] = Dry laser diffraction analysis of Colistin powder (RODOS dispersion)
Procedure: A lactose size fraction of 106-150 μm, derived from 100 M lactose (DMV International, Veghel, The Netherlands) was used as excipient. The fraction was prepared by subsequent vibratory sieving (20 minutes in a Fritsch Analysette 3, Idar-Oberstein, Germany) and air jet sieving (10 minutes in an Alpine A200, Augsburg, Germany) of small quantities (approx. 50 g) of the starting material. Micronized Colistin was prepared by fluid energy milling (GfM, Hamburg, Germany), but because the size distribution of the active ingredient was not satisfactory, size reduction of the crystalline material was continued for 26.5 hours in a ball mill (50 g in a container of 750 ml, filled with ceramic balls of different sizes to a filling degree of 67%). The container was placed on a home constructed drive. Size distributions before and after milling in the ball mill were measured with laser diffraction technique (Fraunhofer theory, using Sympatec HELOS Compact, model KA with 100 mm lens) using dry dispersion with a RODOS disperser at 4 bar.

[4] = primary Colistin particles, RODOS dispersion

Q: Which results are given for Colistin?
A: average median diameter for the aerosol cloud [1]: 18.23 micron; X-50 (μm) From cum. undersize curve [2]: 2.3 μm; X-90 (μm) From cum. Undersize curve [2]: 7.5 μm; mean diameter (X50-value) ([3]; after size reduction in the ball mill (26.5 hours), RODOS dispersion, n=3): 2.14 μm; X100-value ([3]; after size reduction in the ball mill, RODOS dispersion): 87.0 μm; mean diameter (X50-value) ([3]; before size reduction in the ball mill, RODOS disperser at 4 bar): 6.43 μm; X100-value ([3]; before size reduction in the ball mill, RODOS dispersion): 51.0 μm; X-50 (μm) From cum. undersize curve [3, 4]: 2.1 μm; X-90 (μm) From cum. Undersize curve [3, 4]: 31.0 μm
